Laboratory results taken from patent US11331387B2, “Self-assembled drug-loading system and preparation method therefor” (SHANGHAI SELECTION BIOSCIENCE LLC., priority 2016, dated 2022).

Assays:
[1] = test system: BCap37 cells; assay: MTT cytotoxicity test with and without irradiation; type: cell-based, human
Experimental: FIG. 9 is a graph showing a cytotoxicity test of ICG and the complex formulation thereof on BCap37 cells. (I1S2 is a nanoparticle formed by ICG and SN38 with a molar ratio of 1:2; and I1P1 is an aqueous solution drug of the complex formed by ICG and Paclitaxel with a molar ratio of 1:1. The drugs were applied for 24 hours and then washed off, followed by incubation for 24 hours after irradiation and non-irradiation treatment, respectively.)
200 μL of cell suspension at the density of 4000 cells/well was uniformly added to a 96-well plate. After 24 hours of incubation, ICG, ICG/SN38 (I1S2) nanoparticles, ICG/PTX (I1P1) complex solution and ICG/CCM (I1C2) complex solution were added at different concentration points. Two identical plates were incubated in dark for 3 hours, and then culture medium was removed and washed three times with PBS, followed by addition of fresh medium. The irradiation group was further dark-incubated after 30 minutes of irradiation under a fluorescent lamp, and the other cell culture plate was dark-incubated all long as a light-proof control group. After 48 hours of incubation, culture plates were centrifuged at 900 rpm, and culture medium was carefully removed. The plates were added the medium containing 0.75 mg/mL MIT dark-incubated for 3 hours, centrifuged at 3500 rpm. After carefully removing the culture solution, the plates were added 100 μL of DMSO to each well, and shaked for 5 minutes to completely dissolve the purple solids. The absorbance (OD) value was recorded on a microplate reader. The test of each drug concentration point was repeated 3 times.

[2] = plasma clearance test on mice; type: in vivo
Experimental: To determine the appropriate drug ratio of ICG/SN38 nanoparticles for animal experiments, a series of ICG/SN38 nanoparticles: I2S1, I1S1, I1S2, I1S5 and I1S10 were prepared, and the average particle size thereof was 130 nm, 55 nm, 36 nm, 30 nm and 26 nm, respectively. The plasma clearance rate of the nanoparticles was measured based on the content of SN38 (10 mg/kg).
In addition, the plasma clearance rates of small molecule ICG, ICG/PTX solutions, and ICG/SN38 nanoparticles were compared.

[3] = test system: BCap37 human breast cancer cell line tumor; assay: tumor inhibition experiment in tumor-bearing nude mice, with and without irradiation; type: in vivo
Experimental: After the tumor size was grown to about 100 mm^3 (9 days after inoculation), the tumor-bearing nude mice were randomly divided into 7 groups, 5 in each group. One group was injected with PBS as blank control, and the other six administration groups were categorized as the ICG small molecule group without irradiation, ICG small molecule group plus irradiation, ICG/SN38 nanoparticle group, ICG/SN38 nanoparticle group plus irradiation, ICG/PTX aqueous solution group, and ICG/PTX aqueous solution group plus irradiation, respectively. The mice were injected via the tail vein at a dose of calculated ICG concentration at 10 mg/kg, and were administered once every other day for 2 times. The tumor size was recorded until the end of the experiment. The therapeutic effect was evaluated by comparing the treatment group with the control group. The tumor inhibition rate (IR) was calculated by the following formula: IR=100%×(mean tumor weight of the control group−mean tumor weight of the experimental group)/mean tumor weight of the control group.
FIG. 15 was the results of tumor inhibition after irradiation treatment. The ICG group was administered twice, and the ICG/SN38 nanoparticle group was administered once. Irradiation was carried out 4 hours after administration (808 nm laser, intensity 1 W/cm^2, irradiation for 2 minutes). […]

[4] = test system: BCap37 cells; assay: photothermal therapy effect at the cellular level; type: cell-based, human; conditions: 3 h incubation, 808 nm laser 5 min, 1 W/cm^2
Experimental: The endocytosis experiment was carried out with the indocyanine green complex formulations prepared in embodiments 1 and 2 of the present invention, and the free ICG was used as a control. The procedures were as follows:
The experiment was divided into ICG/SN38 group, ICG/PTX group and ICG group. The BCap37 cells on the stage of logarithmic phase were evenly seeded in a 12-well plate at 1×10^5 cells/well. After 24 hours of incubation, the incubation medium was discarded, and the above formulations in 1 mL culture medium were added to the plate, respectively. After 3 hours of incubation, the incubation medium was discarded, and 1 mL of PBS was added. The three wells incubated with different formulations were then irradiated with 808 nm laser for 5 min (1 W/cm^2), and were photographed in real time by an infrared thermal camera, and the graphs of the temperature changes of each group were recorded.

[5] = test system: BCap37 human breast cancer cell line tumor; assay: in vivo fluorescence imaging in tumor-bearing nude mice; conditions: 3 hours after administration, FIG. 13
Description: Therefore, these two nanoparticle formulations were further selected for in vivo fluorescence imaging in tumor-bearing nude mice, in comparison with small molecule ICG. The tumor was located 2 cm below the right armpit of the mouse, derived from BCap37 human breast cancer cell line.

[6] = test system: cells; assay: cellular uptake by laser confocal microscopy; type: cell-based; conditions: 2 hours after drug applied
Experimental: In order to judge the rate of cellular uptake of drug from the nano formulation, as well as the therapeutic effect of the drug, the laser confocal microscopy microscope was used to observe the distribution of the drug in the cells 2 hours after drug applied. […] Therefore, the largest amount of ICG could enter into the cell to exert best therapeutic effect in the nano drug-loading system.

## CC1(C)C(/C=C/C=C/C=C/C=C2\N(CCCCS(=O)(=O)[O-])c3ccc4ccccc4c3C2(C)C)=[N+](CCCCS(=O)(=O)[O-])c2ccc3ccccc3c21.[Na+] [ICG, indocyanine green]
[1]; Homo sapiens, Bcap37, light or radiation study, with light irradiation
  IC50: ~13.5 µM
[1]; ICG 20 μM, after irradiation
  cell death: death of all the cells
[1]; in the absence of light
  toxicity to the cells: not toxic
[2]; after 1 hour
  ICG in plasma: nearly not detectable
[2]; mice, FIG. 11
  plasma clearance: extremely fast
[2]; mouse, plasma, other: injection (site not specified), three minutes after injecting
  concentration at 3 min: < 1000 ng/mL
[3]; irradiation 4 hours after administration, 808 nm, 1 W/cm^2, 2 minutes
  anti-tumor effect: residual tumors were still present and recurred rapidly after the end of treatment
[3]; non-irradiation, ICG 10 mg/kg tail vein, every other day for 2 times
  anti-tumor effect: no anti-tumor effect at all
[4]
  cell temperature change: no significant temperature changes
[5]
  in vivo distribution by fluorescence: the majority of ICG from the small molecule ICG group were cleared by the body
[6]
  cellular uptake / intracellular distribution: difficult to enter the cell
